Here are results for 22 molecules from patent EP4700018A1, “NAV1.8 INHIBITORS, PREPARATION METHOD THEREFOR AND USE THEREOF” (Shanghai Institute of Materia Medica, Chinese Academy of …, priority 2023, dated 2024).

The structures appear in SMILES notation.

Data set [1] addresses human Nav1.8 sodium channel (Homo sapiens, UniProt Q9Y5Y9). Put plainly: Blocking activity on sodium channel 1.8 (Nav1.8), whole-cell manual patch clamp. The note with it: for inhibition at 0.001 µM: read-out: inhibition Percent @1 nM, 1 nM compound; for inhibition at 0.01 µM: read-out: inhibition Percent @10 nM, 10 nM compound. It is filed as cell-based. A general note: Patch clamp records ionic current or voltage across a cell membrane.

A short description of data set [2]: In vivo pharmacokinetics in rats, single intravenous injection or oral gavage. The note with it: male, SD, plasma, Rat; for Vd: read-out: Vss. As for the experimental part:
The in vivo pharmacokinetics in rats were evaluated via a single intravenous injection or oral gavage administration in this test example. • 1. Test Methods and Conditions: Male SD rats were fasted overnight and administered a single intravenous dose of 2 mg/kg or 1 mg/kg of the test compound (solvent for Intravenous administration was 5% DMSO/10% Solutol® HS 15/10% EtOH/75% saline, with a dosing volume of 5 mL/kg) and an oral gavage dose of 10 mg/kg or 5 mg/kg of the test compound (solvent for administration was 0.5% CMC-Na, with a dosing volume of 10 mL/kg), respectively. • 2. Sampling Information: Blood samples (0.2 mL) were collected from the retroorbital venous plexus at the designated time points: 0.25, 0.5, 1.0, 2.0, 3.0, 4.0, 6.0, 8.0, and 24 hours before and after dosing (a 5 min sampling point was added for the intravenous administration group), respectively. The samples were placed in EDTA-K2 tubes and centrifuged at 11,000 rpm for 5 minutes. Plasma was separated and frozen at -20°C. • 3. Assay Information: LC/MS/MS was used to determine the concentration of the parent drug in rat/mouse plasma following intravenous and oral gavage administration of the test compound. Pharmacokinetic parameters in rat/mouse plasma were calculated for both administration routes, and the bioavailability of each compound in rats was also calculated. Table 5: Intravenous Pharmacokinetic Information of Representative Compounds

The mark [3] stands for this setting: intravenous, single dose 2 mg/kg or 1 mg/kg (figure not given).

Chain of human Nav1.8 sodium channel (Q9Y5Y9 whole entry): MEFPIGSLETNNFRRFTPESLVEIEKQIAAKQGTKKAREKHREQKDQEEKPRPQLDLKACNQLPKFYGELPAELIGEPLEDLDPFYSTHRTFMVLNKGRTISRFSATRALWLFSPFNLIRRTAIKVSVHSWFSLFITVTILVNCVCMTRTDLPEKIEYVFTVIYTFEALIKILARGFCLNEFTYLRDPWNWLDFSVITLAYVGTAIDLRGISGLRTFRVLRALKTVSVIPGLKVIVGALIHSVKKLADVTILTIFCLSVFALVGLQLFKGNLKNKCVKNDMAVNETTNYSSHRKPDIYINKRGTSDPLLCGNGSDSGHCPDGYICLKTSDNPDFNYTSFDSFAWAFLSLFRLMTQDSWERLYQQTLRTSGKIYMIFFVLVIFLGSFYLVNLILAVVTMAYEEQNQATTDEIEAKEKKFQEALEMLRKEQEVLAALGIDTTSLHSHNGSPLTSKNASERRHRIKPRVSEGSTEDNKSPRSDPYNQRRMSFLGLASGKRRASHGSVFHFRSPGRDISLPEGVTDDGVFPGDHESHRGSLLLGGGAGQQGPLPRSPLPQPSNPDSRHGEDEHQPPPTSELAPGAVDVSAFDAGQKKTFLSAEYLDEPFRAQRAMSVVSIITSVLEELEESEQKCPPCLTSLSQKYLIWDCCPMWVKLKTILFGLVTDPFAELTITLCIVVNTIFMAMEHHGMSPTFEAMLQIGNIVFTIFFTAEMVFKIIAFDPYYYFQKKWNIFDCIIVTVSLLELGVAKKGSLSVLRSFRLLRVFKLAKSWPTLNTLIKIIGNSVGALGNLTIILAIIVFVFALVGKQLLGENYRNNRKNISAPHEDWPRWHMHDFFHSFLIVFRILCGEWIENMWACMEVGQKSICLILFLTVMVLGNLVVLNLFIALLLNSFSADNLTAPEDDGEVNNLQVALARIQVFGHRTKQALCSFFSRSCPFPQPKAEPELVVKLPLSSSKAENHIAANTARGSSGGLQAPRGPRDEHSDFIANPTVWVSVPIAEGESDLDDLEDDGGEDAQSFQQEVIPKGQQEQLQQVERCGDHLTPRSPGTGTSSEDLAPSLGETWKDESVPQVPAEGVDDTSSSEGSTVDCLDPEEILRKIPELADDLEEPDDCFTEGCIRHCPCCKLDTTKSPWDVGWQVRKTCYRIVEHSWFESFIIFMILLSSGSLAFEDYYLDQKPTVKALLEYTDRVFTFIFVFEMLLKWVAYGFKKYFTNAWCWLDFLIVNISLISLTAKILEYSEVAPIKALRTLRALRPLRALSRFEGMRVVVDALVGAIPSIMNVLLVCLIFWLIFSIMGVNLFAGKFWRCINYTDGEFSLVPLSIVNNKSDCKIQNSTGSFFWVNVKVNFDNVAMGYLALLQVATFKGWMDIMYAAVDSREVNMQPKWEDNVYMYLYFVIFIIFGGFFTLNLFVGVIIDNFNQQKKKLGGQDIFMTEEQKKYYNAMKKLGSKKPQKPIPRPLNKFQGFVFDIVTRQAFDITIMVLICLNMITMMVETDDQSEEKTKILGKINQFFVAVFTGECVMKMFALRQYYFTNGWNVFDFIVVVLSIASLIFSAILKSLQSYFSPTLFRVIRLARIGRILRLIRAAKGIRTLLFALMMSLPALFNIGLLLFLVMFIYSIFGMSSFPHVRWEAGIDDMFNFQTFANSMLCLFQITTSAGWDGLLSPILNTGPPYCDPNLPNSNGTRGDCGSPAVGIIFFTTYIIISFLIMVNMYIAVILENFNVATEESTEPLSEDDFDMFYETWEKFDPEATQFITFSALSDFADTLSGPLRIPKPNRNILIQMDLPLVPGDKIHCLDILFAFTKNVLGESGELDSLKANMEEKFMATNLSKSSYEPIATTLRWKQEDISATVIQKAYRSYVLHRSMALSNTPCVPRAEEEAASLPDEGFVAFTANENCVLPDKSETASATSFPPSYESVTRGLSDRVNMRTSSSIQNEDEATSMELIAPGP

In general, inhibition refers to the percentage by which the read-out fell short of the control. Take `Cc1nc(N2CCCC(F)(F)CC2)c(C(=O)Nc2ccc(Cl)c(C(N)=NO)c2)cc1Cl` [Compound I-5, 5-chloro-2-(4,4-difluoroazepan-1-yl)-N-(4-chloro-3-(N'-hydroxyamidino)phenyl)-6-me thylnicotinamide]: the inhibition at 0.001 µM in data set [1] was 82%.
With `NC(=NO)c1cccc(NC(=O)c2cc(Cl)c(C(F)(F)F)cc2N2CCCC(F)(F)CC2)c1` [Compound I-48, 5-chloro-2-(4,4-difluoroazepan-1-yl)-N-(3-(N'-hydroxyamidino)phenyl)-4-trifluoromet hylbenzamide], the inhibition at 0.01 µM in data set [1] is 77%.
For `N=C(N)c1cc(NC(=O)c2cc(Cl)c(C(F)F)nc2C2CCCC(F)(F)CC2)ccc1F` (stereo not drawn) [Compound I-39, N-(3-amidino-4-fluorophenyl)-5-chloro-2-(4,4-difluorocycloheptan-1-yl)-6-difluorome thylnicotinamide], the inhibition at 0.001 µM in data set [1] is 51%.
Take `NC(=NO)c1cc(NC(=O)c2cc(Cl)c(Cl)cc2N2CCCC(F)(F)CC2)ccc1F` [Compound I-47, 4,5-dichloro-2-(4,4-difluoroazepan-1-yl)-N-(4-fluoro-3-(N'-hydroxyamidino)phenyl)be nzamide]: in data set [1], the inhibition at 0.01 µM is 80%.
Same read-out and setting: in the case of `N#CN=C(N)c1cc(NC(=O)c2cc(Cl)c(C(F)(F)F)nc2N2CCCC(F)(F)CC2)ccc1F` [Compound I-37, 5-chloro-N-(3-(N'-cyanoamidino)-4-fluorophenyl)-2-(4,4-difluoroazepan-1-yl)-6-triflu oromethylnicotinamide] it was 62%.
For the molecule `NC(=NO)c1cc(NC(=O)c2cc(Cl)c(C(F)F)nc2N2CCCC(F)(F)CC2)ccc1F` [Compound I-38, 5-chloro-2-(4,4-difluoroazepan-1-yl)-6-(difluoromethyl)-N-(4-fluoro-3-(N'-hydroxyamidino)phenyl)nicotinamide], the inhibition at 0.001 µM in data set [1] was found to be 33%.
On to `Cc1nc(N2CCCC(F)(F)CC2)c(C(=O)Nc2ccc(C(N)=NO)cc2)cc1Cl` [Compound I-13, 5-chloro-2-(4,4-difluoroazepan-1-yl)-N-(4-(N'-hydroxyamidino)phenyl)-6-methylnicoti namide], for which the inhibition at 0.001 µM in data set [1] came to 85%.
As to `[2H]Cc1nc(N2CCCC(F)(F)CC2)c(C(=O)Nc2ccc(F)c(C(N)=NO)c2)cc1Cl` [Compound I-42, 5-chloro-2-(4,4-difluoroazepan-1-yl)-N-(4-fluoro-3-(N'-hydroxyamidino)phenyl)-6-deu teromethylnicotinamide], the inhibition at 0.001 µM in data set [1] was determined as 65%.
Take `Cc1nc(N2CCCC(F)(F)CC2)c(C(=O)Nc2ccc(F)c(NC(=N)N)c2)cc1Cl` [Compound I-19, 5-chloro-2-(4,4-difluoroazepan-1-yl)-N-(4-fluoro-3-guanidinophenyl)-6-methylnicotin amide]: the inhibition at 0.001 µM in data set [1] was determined as 49%.
Consider `CCc1nc(N2CCCC(F)(F)CC2)c(C(=O)Nc2ccc(F)c(C(N)=NO)c2)cc1Cl` [Compound I-45, 5-chloro-2-(4,4-difluoroazepan-1-yl)-6-ethyl-N-(4-fluoro-3-(N'-hydroxyamidino)pheny I)nicotinamide], for which the inhibition at 0.001 µM in data set [1] came out at 94%.
For the molecule `CC1CN(c2nc(C(F)(F)F)c(Cl)cc2C(=O)Nc2ccc(F)c(C(N)=NO)c2)CCC1(F)F` (single isomer, unassigned) [Compound I-40-P1, 5-chloro-2-(4,4-difluoro-3-methylpiperidin-1-yl)-N-(4-fluoro-3-(N'-hydroxyamidino)phenyl)-6-(trifluoromethyl)nicotinamide], the inhibition at 0.001 µM in data set [1] is 59%.
Take `Cc1nc(N2CCCC(F)(F)CC2)c(C(=O)Nc2ccc(Cl)c(C(=N)N)c2)cc1Cl` [Compound I-6, N-(3-amidino-4-chlorophenyl)-5-chloro-2-(4,4-difluoroazepan-1-yl)-6-methylnicotinamide]: the inhibition at 0.001 µM in data set [1] was 65%.
Turning to `O=C(Nc1ccc2c(c1)S(=O)(=O)NC2)c1c(N2CCCC(F)(F)CC2)ccc(C(F)(F)F)c1Cl` [Compound I-31, 2-chloro-6-(4,4-difluoroazepan-1-yl)-N-(1,1-dioxo-2,3-dihydrobenzisothiazol-6-yl)-3-tr ifluoromethylbenzamide], the inhibition at 0.001 µM in data set [1] was 46%.
By IC50 is commonly meant the point on the concentration scale where inhibition reaches its midpoint. With `Cc1nc(N2CCCC(F)(F)CC2)c(C(=O)Nc2cccc(C(=N)N)c2)cc1Cl` [Compound I-12, N-(3-amidinophenyl)-5-chloro-2-(4,4-difluoroazepan-1-yl)-6-methylnicotinamide], in data set [1] (Nav1.8 channel current, HEK293 cells stably expressing human Nav1.8, clamped at -60 mV, mean ± SEM, read-out: IC50), the half-maximal inhibitory concentration (IC50) was 0.26 ± 0.06 nM. In addition, the inhibition at 0.001 µM in data set [1] worked out at 73%.
Consider `Cc1ccc(NC(=O)c2cc(Cl)c(C)nc2N2CCCC(F)(F)CC2)cc1C(=N)N` [Compound I-8, N-(3-amidino-4-methylphenyl)-5-chloro-2-(4,4-difluoroazepan-1-yl)-6-methylnicotinamide], for which the inhibition at 0.001 µM in data set [1] was determined as 51%.
Regarding `Cc1ccc(C(=O)Nc2ccc(F)c(C(N)=NO)c2)c(N2CCCC(F)(F)CC2)n1` [Compound I-29, 2-(4,4-difluoroazepan-1-yl)-N-(4-fluoro-3-(N'-hydroxyamidino)phenyl)-6-methylnicoti namide], the inhibition at 0.01 µM in data set [1] amounted to 57%.
For the molecule `Cc1nc(N2CCCC(F)(F)CC2)c(C(=O)Nc2ccnc(C(N)=NO)c2)cc1Cl` [Compound I-15, 5-chloro-2-(4,4-difluoroazepan-1-yl)-N-(2-(N'-hydroxyamidinoimino)pyridin-4-yl)-6-m ethylnicotinamide], the inhibition at 0.001 µM in data set [1] was 66%.
Take `CC1CN(c2nc(C(F)(F)F)c(Cl)cc2C(=O)Nc2ccc(F)c(C(N)=NO)c2)CCC1(F)F` (single isomer, unassigned) [Compound I-40-P2, 5-chloro-2-(4,4-difluoro-3-methylpiperidin-1-yl)-N-(4-fluoro-3-(N'-hydroxyamidino)phenyl)-6-(trifluoromethyl)nicotinamide]: the “inhibition Percent @1 nM” value in data set [1] (1 nM compound, 0.001 µM) is 63%.
As for `C#Cc1cc(C(=O)Nc2ccc(F)c(C(N)=NO)c2)c(N2CCCC(F)(F)CC2)nc1C` [Compound I-26, 2-(4,4-difluoroazepan-1-yl)-5-ethynyl-N-(4-fluoro-3-(N'-hydroxyamidino)phenyl)-6-m ethylnicotinamide], in data set [1], the inhibition at 0.01 µM was 76%.
Turning to `NC(=NO)c1cc(NC(=O)c2cc(Cl)c(CF)nc2N2CCCC(F)(F)CC2)ccc1F` [Compound I-44, 5-chloro-2-(4,4-difluoroazepan-1-yl)-N-(4-fluoro-3-(N'-hydroxyamidino)phenyl)-6-(fluoromethyl)nicotinamide], in data set [1], the inhibition at 0.001 µM was 32%.
By AUC(0-t) is commonly meant the area under the concentration-time curve up to a stated or last time point. Lower therefore signals low exposure. One may read the half-life as how long it takes for the measured level to halve. Read a high half-life as slow decline. A word on the Cmax: it is the highest concentration seen after dosing. A word on the Tmax: it is the time from dosing to the highest level. A word on the bioavailability: it is the share of a dose that reaches the circulation, judged against a reference dose that is usually intravenous. A low value points to little systemic uptake. Regarding `Cc1cc(F)ccc1Oc1cc(C(F)(F)F)ccc1C(=O)Nc1cc[nH]c(=O)c1` [VX-150, reference compound], in data set [2] (setting [3]), the area under the curve AUC(0-t) was found to be 2510 ng·h/mL, the clearance was 13.9 mL/min/kg, the half-life is 1.08 h and the Vd stood at 1.09 L/kg. Moreover, in data set [2] (oral gavage, 10mg/kg), the area under the curve AUC(0-t) worked out at 3810 ng·h/mL, the Cmax turned out to be 723 ng/mL, the time of peak concentration (Tmax) is 2 h and the half-life was 2.88 h. The bioavailability in data set [2] (oral gavage, 10mg/kg) is 30.4%.
On to `Cc1nc(N2CCCC(F)(F)CC2)c(C(=O)Nc2ccc(F)c(C(N)=NC#N)c2)cc1Cl` [Compound I-3, 5-chloro-N-(3-(N'-cyanoamidino)-4-fluorophenyl)-2-(4,4-difluoroazepan-1-yl)-6-meth ylnicotinamide], for which, in data set [2] (setting [3]), the AUC(0-t) was 567 ng·h/mL, the clearance was determined as 29.7 mL/min/kg, the half-life was 0.325 h and the Vd was 0.442 L/kg. In data set [2] (oral gavage, 5mg/kg), the area under the curve AUC(0-t) was found to be 1770 ng·h/mL, the Cmax amounted to 381 ng/mL, the time of peak concentration (Tmax) worked out at 6 h and the half-life is 2.08 h. Besides, the bioavailability in data set [2] (oral gavage, 5mg/kg) was 62.4%.
